A word on the pKi: it is the Ki on a negative log10 scale, so that one unit is a factor of ten. Low values mean a high Ki, high ones a low Ki.

One assay deals with Melanocortin receptor 4 (Homo sapiens, UniProt P32245). The experiment in a line: Inhibition of [125I]-NDP MSH binding towards human melanocortin 4 receptor.
Another assay concerns the target Melanocortin receptor 3 (Homo sapiens, UniProt P41968). Put plainly: Inhibition of [125I]-NDP MSH binding towards human melanocortin 3 receptor.
The target of a further assay is Melanocortin receptor 5 (Homo sapiens, UniProt P33032). Put plainly: Inhibition of [125I]-NDP MSH binding towards human melanocortin 5 receptor.
The target of assay [1] is Melanocortin receptor (M3 and M4) (Homo sapiens) (UniProt P32245+P41968). Put plainly: Binding selectivity across hMC 4 and hMC 3 by determining the competitive inhibition of [125 I]NDP MSH binding. Format: protein assay.
Assay [2] concerns the target Melanocyte-stimulating hormone receptor (Homo sapiens, UniProt Q01726). Put plainly: Inhibition of [125I]-NDP MSH binding towards human melanocortin 1 receptor.
The target in assay [3] is Melanocortin receptor (M4 and M5) (Homo sapiens) (UniProt P32245+P33032). The experiment in a line: Binding selectivity across hMC 4 and hMC 5 by determining the competitive inhibition of [125 I]NDP MSH binding. The format is protein assay.
In assay [4] the target is Melanocortin receptor (M1 and M4) (Homo sapiens) (UniProt P32245+Q01726). Put plainly: Binding selectivity across hMC 4 and hMC 1 by determining the competitive inhibition of [125 I]NDP MSH binding. Format: protein assay.

Each structure is given as a SMILES string. pKi: −log10 of the molar value.

Chain of Melanocortin receptor (M4 and M5) (Homo sapiens) (P32245 whole entry, looked up): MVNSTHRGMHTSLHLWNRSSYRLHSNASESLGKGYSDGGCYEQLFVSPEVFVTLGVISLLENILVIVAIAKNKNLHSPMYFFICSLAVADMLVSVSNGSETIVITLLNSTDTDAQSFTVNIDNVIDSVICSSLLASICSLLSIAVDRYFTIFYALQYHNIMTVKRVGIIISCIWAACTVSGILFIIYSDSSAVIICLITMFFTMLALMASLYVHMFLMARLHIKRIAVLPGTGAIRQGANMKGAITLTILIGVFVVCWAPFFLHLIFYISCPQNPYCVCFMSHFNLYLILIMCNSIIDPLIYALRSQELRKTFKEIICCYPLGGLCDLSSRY
Chain of Melanocortin receptor (M4 and M5) (Homo sapiens) (P33032 whole entry, looked up): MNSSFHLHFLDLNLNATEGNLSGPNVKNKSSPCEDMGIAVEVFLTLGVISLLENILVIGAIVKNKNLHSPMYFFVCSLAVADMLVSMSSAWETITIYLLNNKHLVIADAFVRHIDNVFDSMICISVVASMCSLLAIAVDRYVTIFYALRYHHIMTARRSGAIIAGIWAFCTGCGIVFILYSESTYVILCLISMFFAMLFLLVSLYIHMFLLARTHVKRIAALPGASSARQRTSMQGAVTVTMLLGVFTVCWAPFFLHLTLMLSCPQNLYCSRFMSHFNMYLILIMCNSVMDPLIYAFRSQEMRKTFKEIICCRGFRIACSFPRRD
Chain of Melanocortin receptor 4 (P32245 whole entry): as the sequence (P32245 whole entry, looked up) above
Chain of Melanocyte-stimulating hormone receptor (Q01726 whole entry): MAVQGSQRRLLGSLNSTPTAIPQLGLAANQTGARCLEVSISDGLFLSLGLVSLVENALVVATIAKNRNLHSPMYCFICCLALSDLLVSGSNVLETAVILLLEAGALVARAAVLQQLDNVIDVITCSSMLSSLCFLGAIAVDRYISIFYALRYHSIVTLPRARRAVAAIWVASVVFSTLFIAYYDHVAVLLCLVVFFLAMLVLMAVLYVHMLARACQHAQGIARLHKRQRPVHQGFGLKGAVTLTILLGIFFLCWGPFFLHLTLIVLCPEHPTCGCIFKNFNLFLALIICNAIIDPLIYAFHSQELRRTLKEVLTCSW
Chain of Melanocortin receptor 5 (P33032 whole entry): as the sequence (P33032 whole entry, looked up) above
Chain of Melanocortin receptor 3 (P41968 whole entry): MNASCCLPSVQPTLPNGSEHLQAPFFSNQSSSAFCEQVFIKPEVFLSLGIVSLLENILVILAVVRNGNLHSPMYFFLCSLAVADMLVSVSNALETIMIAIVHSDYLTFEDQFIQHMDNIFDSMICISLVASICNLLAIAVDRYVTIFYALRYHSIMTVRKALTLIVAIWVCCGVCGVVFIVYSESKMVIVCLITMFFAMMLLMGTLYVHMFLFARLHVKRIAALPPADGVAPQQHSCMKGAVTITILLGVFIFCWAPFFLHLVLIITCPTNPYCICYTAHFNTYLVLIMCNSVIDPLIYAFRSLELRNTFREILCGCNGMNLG

The molecule `CS(=O)(=O)N1CCc2cccc(N3CCN(C(=O)[C@@H](Cc4ccc(Cl)cc4)NC(=O)[C@H]4Cc5ccccc5CN4)CC3)c2C1` showed a pKi on Melanocortin receptor 4 of 6.22.

On to `O=C(N[C@H](Cc1ccc(Cl)cc1)C(=O)N1CCN(c2cccc3cc[nH]c23)CC1)[C@H]1Cc2ccccc2CN1`, for which, at Melanocortin receptor 4, the pKi was 5.32.

Take `O=C(N[C@H](Cc1ccc(Cl)cc1)C(=O)N1CCN(c2cccc3c2NCC3)CC1)[C@H]1Cc2ccccc2CN1`: the negative logarithm of the Ki (pKi) at Melanocortin receptor 4 is 5.68.

Take `CC(C)S(=O)(=O)N1CCc2cccc(N3CCN(C(=O)[C@@H](Cc4ccc(Cl)cc4)NC(=O)[C@H]4Cc5ccccc5CN4)CC3)c2C1`: the pKi on Melanocortin receptor 4 is 6.02.

In the case of `CC(=O)N1CCc2cccc(N3CCN(C(=O)[C@@H](Cc4ccc(Cl)cc4)NC(=O)[C@H]4Cc5ccccc5CN4)CC3)c2C1`, the negative logarithm of the Ki (pKi) at Melanocortin receptor 4 is 6.30.

`CC(=O)NC1CCc2cccc(N3CCN(C(=O)[C@@H](Cc4ccc(Cl)cc4)NC(=O)[C@H]4Cc5ccccc5CN4)CC3)c2C1` (stereo partly drawn) had a negative-log Ki (pKi) at Melanocortin receptor 4 of 6.39.

`CN(C1CCc2cccc(N3CCN(C(=O)[C@@H](Cc4ccc(Cl)cc4)NC(=O)[C@H]4Cc5ccccc5CN4)CC3)c2C1)S(C)(=O)=O` (stereo partly drawn): the pKi on Melanocortin receptor 4 is 6.28.

The molecule `CN1CCc2cccc(N3CCN(C(=O)[C@@H](Cc4ccc(Cl)cc4)NC(=O)[C@H]4Cc5ccccc5CN4)CC3)c2C1` had a pKi at Melanocortin receptor 4 of 6.55.

Molecule `O=C(N[C@H](Cc1ccc(Cl)cc1)C(=O)N1CCN(c2cccc3c2NCCC3)CC1)[C@H]1Cc2ccccc2CN1` gave a pKi at Melanocortin receptor 4 of 5.80.

`CS(=O)(=O)N1CCCc2cccc(N3CCN(C(=O)C(Cc4ccc(Cl)cc4)NC(=O)[C@H]4Cc5ccccc5CN4)CC3)c21` (stereo partly drawn): on Melanocortin receptor 4, the pKi is 6.05. Compared with the last molecule, the pKi is 0.25 log units higher.

As for `CC(=O)N1CCCc2cccc(N3CCN(C(=O)[C@@H](Cc4ccc(Cl)cc4)NC(=O)[C@H]4Cc5ccccc5CN4)CC3)c21`, the negative logarithm of the Ki (pKi) was 6.30 at Melanocortin receptor 3, 5.40 on Melanocortin receptor 5, 5.11 at Melanocortin receptor 4 and 4.70 in assay [2]. Besides, the Binding selectivity worked out at 0.6 in assay [1], 5 in assay [3] and 23 in assay [4].

Take `CN(C)[C@H]1CCc2cccc(N3CCN(C(=O)[C@@H](Cc4ccc(Cl)cc4)NC(=O)[C@H]4Cc5ccccc5CN4)CC3)c2C1`: on Melanocortin receptor 4, the negative logarithm of the Ki (pKi) is 7.30.

For the molecule `O=C(N[C@H](Cc1ccc(Cl)cc1)C(=O)N1CCN(c2cccc3c2CCCC3)CC1)[C@H]1Cc2ccccc2CN1`, the pKi at Melanocortin receptor 3 is 5.92; at Melanocortin receptor 5, 6.59; at Melanocortin receptor 4 it was 5.38; in assay [2], 5.52. The Binding selectivity in assay [1] was 181; in assay [3], 3.8; in assay [4] it was 47.

Take `CCCN(CCC)C1CCc2cccc(N3CCN(C(=O)[C@@H](Cc4ccc(Cl)cc4)NC(=O)[C@H]4Cc5ccccc5CN4)CC3)c2C1` (stereo partly drawn): the pKi at Melanocortin receptor 4 is 6.74.

`CN(C)[C@@H]1CCc2cccc(N3CCN(C(=O)[C@@H](Cc4ccc(Cl)cc4)NC(=O)[C@H]4Cc5ccccc5CN4)CC3)c2C1` had a pKi on Melanocortin receptor 4 of 7.10.

As to `CS(=O)(=O)N1CCc2c(cccc2N2CCN(C(=O)[C@@H](Cc3ccc(Cl)cc3)NC(=O)[C@H]3Cc4ccccc4CN3)CC2)C1`, the pKi at Melanocortin receptor 4 is 5.41.

Consider `CNC1CCc2cccc(N3CCN(C(=O)[C@@H](Cc4ccc(Cl)cc4)NC(=O)[C@H]4Cc5ccccc5CN4)CC3)c2C1` (stereo partly drawn), for which the pKi on Melanocortin receptor 4 was 6.82.

In the case of `CCN(CC)C1CCc2cccc(N3CCN(C(=O)[C@@H](Cc4ccc(Cl)cc4)NC(=O)[C@H]4Cc5ccccc5CN4)CC3)c2C1` (stereo partly drawn), the negative-log Ki (pKi) on Melanocortin receptor 4 was 6.77. This pKi and that of the molecule before are within 0.2 log units of each other.

Turning to `CN(C)C1CCc2cccc(N3CCN(C(=O)[C@@H](Cc4ccc(Cl)cc4)NC(=O)[C@H]4Cc5ccccc5CN4)CC3)c2C1` (stereo partly drawn), the negative logarithm of the Ki (pKi) at Melanocortin receptor 3 was 5.09; on Melanocortin receptor 5, 6.55; at Melanocortin receptor 4, 7.15; in assay [2], 5.40. Besides, the Binding selectivity in assay [1] amounted to 164; in assay [3], 5.6; in assay [4] it was 72.

For `CS(=O)(=O)N1CCc2cccc(N3CCN(C(=O)C(Cc4ccc(Cl)cc4)NC(=O)[C@H]4Cc5ccccc5CN4)CC3)c21` (stereo partly drawn), the pKi at Melanocortin receptor 4 was 6.05.

With `NC1CCc2cccc(N3CCN(C(=O)[C@@H](Cc4ccc(Cl)cc4)NC(=O)[C@H]4Cc5ccccc5CN4)CC3)c2C1` (stereo partly drawn), on Melanocortin receptor 4, the pKi was 6.62.

With `CCN1CCc2cccc(N3CCN(C(=O)[C@@H](Cc4ccc(Cl)cc4)NC(=O)[C@H]4Cc5ccccc5CN4)CC3)c2C1`, the negative logarithm of the Ki (pKi) on Melanocortin receptor 4 is 6.72. The pKi values of the last two molecules are within 0.2 log units of each other.

For the molecule `O=C(N[C@H](Cc1ccc(Cl)cc1)C(=O)N1CCN(c2cccc3c2CN(S(=O)(=O)c2ccccc2)CC3)CC1)[C@H]1Cc2ccccc2CN1`, the pKi on Melanocortin receptor 3 is 5.92; at Melanocortin receptor 5 it was 6.15; on Melanocortin receptor 4, 5.60; in assay [2] it was 5.15. In addition, the Binding selectivity in assay [1] is 4; in assay [3], 2.6; in assay [4], 23.

At Melanocortin receptor 4, `CCN1CCc2c(cccc2N2CCN(C(=O)[C@@H](Cc3ccc(Cl)cc3)NC(=O)[C@H]3Cc4ccccc4CN3)CC2)C1` showed a pKi of 6.15.

Values taken from ChEMBL document CHEMBL1140388, “Privileged structure-based ligands for melanocortin receptors-tetrahydroquinolines, indoles, and aminotetralines” (Bioorg Med Chem Lett, 2005).
